Test systems include U251 CNS; EKVX NSCLC; HOP-92 NSCLC; NCI-H522 lung; MOLT-4 leukemia; CCRF-CEM leukemia; M14 melanoma; A549 NSCLC; IGROV1 ovarian; SR leukemia.
Common to all, as to assay: inhibition of tumour cell growth, NCI panel, 48 h

SMILES strings stand for the structures.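 These data come from cells grown in 96-well plates and exposed to compound for 48 hours at five concentrations. Abbreviation: GI50, concentration required for 50% inhibition of growth. TGI: total growth inhibition.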 A value given as a limit tells only on which side of the number the result lay.

As for `COc1ccc2c(c1)CC1c3c(cc4c(c3-2)OCO4)CCN1C` (stereo unspecified), the TGI is greater than 100 µM in the experiment on U251 CNS; 81.5 µM in the experiment on EKVX NSCLC; 57 µM with HOP-92 NSCLC; 38.7 µM in the experiment on NCI-H522 lung; 64.9 µM in the experiment with MOLT-4 leukemia; greater than 100 µM with CCRF-CEM leukemia. Also, the TGI worked out at 62.9 µM in the experiment on M14 melanoma, 61 µM in the experiment with A549 NSCLC and 85.8 µM in the experiment on IGROV1 ovarian.

In the case of `C/C(=C\CC[C@]1(C)OC(C)(C)OC1CC/C(C)=C/CO[Si](c1ccccc1)(c1ccccc1)C(C)(C)C)CC/C=C/CO[Si](C)(C)C(C)(C)C` (stereo partly specified), the TGI in the experiment with U251 CNS, in the experiment on EKVX NSCLC, in the experiment on HOP-92 NSCLC, in the experiment on NCI-H522 lung, in the experiment on MOLT-4 leukemia and in the experiment with CCRF-CEM leukemia was greater than 100 µM throughout. In addition, the TGI with M14 melanoma, with A549 NSCLC and in the experiment on IGROV1 ovarian was greater than 100 µM each time.

For `Cc1ccc(C2=C(c3ccccc3)C(Br)(c3ccccc3)C(c3ccccc3)=C2c2ccc(C)cc2)cc1`, the TGI in the experiment with U251 CNS, in the experiment on EKVX NSCLC, with HOP-92 NSCLC, in the experiment on NCI-H522 lung, with MOLT-4 leukemia and in the experiment on CCRF-CEM leukemia was greater than 100 µM in each case. For the same compound, the TGI with M14 melanoma, in the experiment on A549 NSCLC and with IGROV1 ovarian was greater than 100 µM throughout.

As to `O=C1CCCC1NC(=O)C(F)(F)F` (stereo unspecified), the TGI in the experiment on U251 CNS, in the experiment on EKVX NSCLC, in the experiment with HOP-92 NSCLC, in the experiment with NCI-H522 lung, in the experiment on MOLT-4 leukemia and with CCRF-CEM leukemia was greater than 100 µM throughout. Moreover, the TGI in the experiment with M14 melanoma, with A549 NSCLC and with IGROV1 ovarian was greater than 100 µM each time.

Regarding `N#CC1=C(N)Oc2c(sc3c(F)cccc23)C1c1ccc(F)cc1` (stereo unspecified), the GI50 in the experiment on U251 CNS was 0.569 µM; in the experiment with EKVX NSCLC, 3.24 µM; in the experiment on HOP-92 NSCLC, 2.36 µM; in the experiment on NCI-H522 lung, 0.473 µM; in the experiment with MOLT-4 leukemia it was 0.521 µM; with CCRF-CEM leukemia, 0.47 µM. In addition, the GI50 was 0.41 µM in the experiment on M14 melanoma, 1.05 µM with A549 NSCLC and 0.621 µM with IGROV1 ovarian. In addition, the TGI in the experiment on U251 CNS stood at 15.3 µM; in the experiment with EKVX NSCLC, 20.2 µM; in the experiment with HOP-92 NSCLC, 13.4 µM; in the experiment on NCI-H522 lung, 10.8 µM; with MOLT-4 leukemia it was 13.3 µM; in the experiment on CCRF-CEM leukemia it was 25.3 µM. Further, the TGI in the experiment with M14 melanoma came to 6.41 µM; in the experiment with A549 NSCLC, 19.1 µM; in the experiment on IGROV1 ovarian, 14.7 µM.

As for `CC1/C(=N/Nc2ccc([N+](=O)[O-])cc2)CC2C3(C)CCC2(C(C)C(=O)O)C(=O)C13` (stereo unspecified), the GI50 in the experiment with U251 CNS is 30.2 µM; in the experiment on EKVX NSCLC it was 3.36 µM; with HOP-92 NSCLC, 23.6 µM; in the experiment with NCI-H522 lung it was 4.48 µM; with MOLT-4 leukemia, 22.5 µM; in the experiment on CCRF-CEM leukemia, 16.3 µM. Further, the GI50 with M14 melanoma is 11.2 µM; in the experiment on A549 NSCLC, 5.5 µM; in the experiment with IGROV1 ovarian it was greater than 100 µM. Further, the TGI in the experiment on U251 CNS, with EKVX NSCLC, with HOP-92 NSCLC, in the experiment on NCI-H522 lung, with MOLT-4 leukemia and in the experiment with CCRF-CEM leukemia was greater than 100 µM in each case. The TGI in the experiment with M14 melanoma, in the experiment with A549 NSCLC and with IGROV1 ovarian was greater than 100 µM each time.

On to `Cn1c(=O)c(C(=O)NC(=O)OCc2ccccc2)cn(CCSCCOC(=O)NCCCCCCNC(=O)OCCSCCn2cc(C(=O)NC(=O)OCc3ccccc3)c(=O)n(C)c2=O)c1=O`, for which the TGI in the experiment on U251 CNS is greater than 100 µM; in the experiment with EKVX NSCLC it was greater than 100 µM; in the experiment on HOP-92 NSCLC it was 87.5 µM; with NCI-H522 lung it was greater than 100 µM; with MOLT-4 leukemia, greater than 100 µM; with CCRF-CEM leukemia it was greater than 100 µM. The TGI with M14 melanoma, in the experiment on A549 NSCLC and in the experiment with IGROV1 ovarian was greater than 100 µM in each case.

With `O=C1C(=O)c2ccccc2C(O)=C1CCCCCCCCC1CCCCC1`, the TGI with U251 CNS was found to be 17.8 µM; in the experiment on NCI-H522 lung, 25.7 µM; with MOLT-4 leukemia it was 12.3 µM; with CCRF-CEM leukemia, 13.6 µM; in the experiment on SR leukemia, 54.9 µM; in the experiment with M14 melanoma it was 26.2 µM. Moreover, the TGI with A549 NSCLC came out at 23.5 µM; in the experiment with IGROV1 ovarian, 19.2 µM.

As to `CC1=Nn2c(nnc2-c2ccc(N)cc2)NC(C)(C)C1`, the TGI in the experiment on U251 CNS, with EKVX NSCLC, with HOP-92 NSCLC, in the experiment with NCI-H522 lung, in the experiment on MOLT-4 leukemia and with CCRF-CEM leukemia was greater than 100 µM each time. The TGI with M14 melanoma, in the experiment on A549 NSCLC and in the experiment with IGROV1 ovarian was greater than 100 µM each time.

Turning to `CC(=O)c1c[nH]cc1CO`, the TGI in the experiment on U251 CNS, in the experiment on HOP-92 NSCLC, in the experiment with MOLT-4 leukemia, with CCRF-CEM leukemia, in the experiment on SR leukemia and in the experiment with M14 melanoma was greater than 10 µM in each case. Also, the TGI in the experiment with A549 NSCLC and with IGROV1 ovarian was greater than 10 µM each time.

Consider `CC1(C)C2C/C(=C\c3ccccc3)C(=O)C1C2` (stereo unspecified), for which the TGI with U251 CNS, in the experiment with EKVX NSCLC, in the experiment on HOP-92 NSCLC, in the experiment on NCI-H522 lung, in the experiment with MOLT-4 leukemia and in the experiment with CCRF-CEM leukemia was greater than 100 µM in each case. In addition, the TGI with M14 melanoma, in the experiment on A549 NSCLC and in the experiment with IGROV1 ovarian was greater than 100 µM throughout.

For the compound `CC1=C(C(=O)Nc2ccc(F)c(Cl)c2)C(c2cccc(Oc3ccccc3)c2)NC(=O)N1` (stereo unspecified), the GI50 with U251 CNS was 13.4 µM; in the experiment with EKVX NSCLC, 14.8 µM; in the experiment on HOP-92 NSCLC, 12 µM; with NCI-H522 lung, 14.9 µM; with CCRF-CEM leukemia, 10.4 µM; in the experiment with M14 melanoma, 15.2 µM. The GI50 with A549 NSCLC was 14.1 µM; in the experiment on IGROV1 ovarian, 10.7 µM. Moreover, the TGI in the experiment with U251 CNS was found to be 26.2 µM; in the experiment on EKVX NSCLC, 31.8 µM; in the experiment with HOP-92 NSCLC, 24.9 µM; with NCI-H522 lung, 29.4 µM; with CCRF-CEM leukemia, 26.4 µM; in the experiment with M14 melanoma it was 29.3 µM. Besides, the TGI with A549 NSCLC was 30.2 µM; in the experiment on IGROV1 ovarian it was 24.2 µM.

The record behind these values is PubChem BioAssay (NCI).
